One experiment concerns MCF-7 cells. In words: MTT test on suppressing cancer cells, MCF-7. It counts as cell-based. The note with it: Homo sapiens, MCF7, 24h. As for the experimental part: (Nunc). To check the interference effects of candidate membranes. […]
Microplate Spectrophotometer with excitation wavelength (Boster). being 432 nm. The IC50 calculations were performed by Graphpad Prism 5 (Graphpad software, Inc.). Key residues discovery
Tests of candidate compounds on suppressing In the present study, key residues involved in the […]
by using site-directed mutagenesis and FPA competition
Cell lines including A2780, MCF-7 and SMMC- assays in combination. According to the results of pairwise 7721 were cultured to the logarithmic growth phase per-residue free energy decomposition, the residues in 3 ml complete media (RPMI1640 plus 10%FBS), contributing a lot to the binding of PUMA/Comp8 to 4 Mcl-1 were subjected to site-directed mutagenesis. By respectively. After adjusting their concentrations to 5×10 reference to the primers listed in Supplementary Table5, cells/ml with complete media, these cell lines were plated overlapping extension PCR was conducted to realize into 96-well, transparent, flat-bottom plates (150 μl/well), site-directed mutagenesis. After verified by gene each point was prepared in three replicates. The density sequencing, the individually mutated PCR products were of cultured cell lines was evaluated by MTT tests. When cloned into the expressing vector pET-43.1a (+). […]

Experiment [1] concerns HUVECs infected with Ad-PUMA. Briefly: PUMA-induced apoptosis of HUVECs infected with Ad-PUMA (Caspase-Glo 3/7). It counts as cell-based. The note with it: low-dose, less than 12.5 μM, 48h. As for the experimental part: Tests of candidate compounds on blocking Synthesis of compound 8
PUMA-dependent apoptosis To a suspension of rhodanine (7.57 mmol) in dry Construction and validation of recombinant ethanol (10 mL), 4-Biphentlaldehyde (11.3 mmol), N-(2-Adenovirus By taking pHBAd-MCMV-GFP (Hanbio) as hydroxyethyl) piperazine (11.3 mmol), and glacial acetic vector, the construction and purification of Adenoviruses acid (0.75 mmol) were added and the resulting mixture overexpressing PUMA and PUMA-∆BH3 (PUMA was further stirred under reflux for 5-6 h. The reaction was without the BH3 domain) were performed according to completed and then cooled in an ice bath. The precipitated former reports. […]
various multiplicity of infection (MOI, 6 points, from 0 The crystal structure of Comp8 was solved by X-ray to 160) in 96-well, white, flat-bottom plates (Nunc). […] Shake gently and record the luminescence of each well on TECAN Infinite M1000 S.Y.Z., H.C., J.N.L and J.Y.L. conceived the project.
Microplate Spectrophotometer. The data were analyzed J.Y.L. and Z.T. designed the experiment. J.Y.L., Z.T., by Graphpad Prism and suitable MOI of Ad-PUMA for N.Z., X.Y.L. and C.Y.L. performed the experiments and following cell infection can be determined in this process. prepared the manuscript. […]
added to make the final compound concentrations range 2. […] The results were detected by flexible docking. […]

The IC50 is the midpoint of a concentration-inhibition curve. With `O=C1N=C(N2CCN(CCO)CC2)S/C1=C\c1ccc(-c2ccccc2)cc1` [Comp8], in the experiment with MCF-7 cells, the half-maximal inhibitory concentration (IC50) was 44.2 ± 2.3 µM. Besides, the “effect on PUMA-induced apoptosis of HUVECs” value in experiment [1] is recorded as “inhibitory effect”.

Values taken from article PMC5589576, “Targeting the apoptotic Mcl-1-PUMA interface with a dual-acting compound” (Oncotarget, 2017).
